From US9669028B2, “Substituted 5-(pyrazin-2-yl)-1H-pyrazolo [3, 4-B] pyridine and pyrazolo [3, 4-B] pyridine derivatives as protein kinase inhibitors” (Arrien Pharmaceuticals LLC, priority 2011, dated 2017)

Assays:
Type in all cases: biochemical
DYRK1A = DYRK1A (Homo sapiens (Human), UniProt Q13627); test: In vitro DYRK1A inhibition assay
Protocol: (§1) Briefly, specific kinase/substrate pairs along with required cofactors were prepared in reaction buffer; 20 mM Hepes (pH 7.5), 10 mM MgCl2, 1 mM EGTA, 0.02% Brij35, 0.02 mg/ml BSA, 0.1 mM Na3VO4, 2 mM DTT, 1% DMSO. Compounds were delivered into the reaction, followed ˜20 min later by addition of a mixture of ATP (Sigma) and 33P ATP (PerkinElmer) to a final concentration of 10 μM. […] IC50 values and curve fits were obtained using Prism (GraphPad Software). Kinome tree representations were prepared using Kinome Mapper (http://www.reactionbiology.com/apps/kinome/mapper/Launch Kinome.htm).
The 2×DYRK1A/Ser/Thr 18 mixture was prepared in 50 mM HEPES pH 7.5, 0.01% BRIJ-35, 10 mM MgCl2, 1 mM EGTA.

LRRK2 = LRRK2 (Homo sapiens (Human), UniProt Q5S007); test: LRRK2 Kinase Assay; settings: 10 μM ATP
Chain of LRRK2 (Q5S007 970-2527): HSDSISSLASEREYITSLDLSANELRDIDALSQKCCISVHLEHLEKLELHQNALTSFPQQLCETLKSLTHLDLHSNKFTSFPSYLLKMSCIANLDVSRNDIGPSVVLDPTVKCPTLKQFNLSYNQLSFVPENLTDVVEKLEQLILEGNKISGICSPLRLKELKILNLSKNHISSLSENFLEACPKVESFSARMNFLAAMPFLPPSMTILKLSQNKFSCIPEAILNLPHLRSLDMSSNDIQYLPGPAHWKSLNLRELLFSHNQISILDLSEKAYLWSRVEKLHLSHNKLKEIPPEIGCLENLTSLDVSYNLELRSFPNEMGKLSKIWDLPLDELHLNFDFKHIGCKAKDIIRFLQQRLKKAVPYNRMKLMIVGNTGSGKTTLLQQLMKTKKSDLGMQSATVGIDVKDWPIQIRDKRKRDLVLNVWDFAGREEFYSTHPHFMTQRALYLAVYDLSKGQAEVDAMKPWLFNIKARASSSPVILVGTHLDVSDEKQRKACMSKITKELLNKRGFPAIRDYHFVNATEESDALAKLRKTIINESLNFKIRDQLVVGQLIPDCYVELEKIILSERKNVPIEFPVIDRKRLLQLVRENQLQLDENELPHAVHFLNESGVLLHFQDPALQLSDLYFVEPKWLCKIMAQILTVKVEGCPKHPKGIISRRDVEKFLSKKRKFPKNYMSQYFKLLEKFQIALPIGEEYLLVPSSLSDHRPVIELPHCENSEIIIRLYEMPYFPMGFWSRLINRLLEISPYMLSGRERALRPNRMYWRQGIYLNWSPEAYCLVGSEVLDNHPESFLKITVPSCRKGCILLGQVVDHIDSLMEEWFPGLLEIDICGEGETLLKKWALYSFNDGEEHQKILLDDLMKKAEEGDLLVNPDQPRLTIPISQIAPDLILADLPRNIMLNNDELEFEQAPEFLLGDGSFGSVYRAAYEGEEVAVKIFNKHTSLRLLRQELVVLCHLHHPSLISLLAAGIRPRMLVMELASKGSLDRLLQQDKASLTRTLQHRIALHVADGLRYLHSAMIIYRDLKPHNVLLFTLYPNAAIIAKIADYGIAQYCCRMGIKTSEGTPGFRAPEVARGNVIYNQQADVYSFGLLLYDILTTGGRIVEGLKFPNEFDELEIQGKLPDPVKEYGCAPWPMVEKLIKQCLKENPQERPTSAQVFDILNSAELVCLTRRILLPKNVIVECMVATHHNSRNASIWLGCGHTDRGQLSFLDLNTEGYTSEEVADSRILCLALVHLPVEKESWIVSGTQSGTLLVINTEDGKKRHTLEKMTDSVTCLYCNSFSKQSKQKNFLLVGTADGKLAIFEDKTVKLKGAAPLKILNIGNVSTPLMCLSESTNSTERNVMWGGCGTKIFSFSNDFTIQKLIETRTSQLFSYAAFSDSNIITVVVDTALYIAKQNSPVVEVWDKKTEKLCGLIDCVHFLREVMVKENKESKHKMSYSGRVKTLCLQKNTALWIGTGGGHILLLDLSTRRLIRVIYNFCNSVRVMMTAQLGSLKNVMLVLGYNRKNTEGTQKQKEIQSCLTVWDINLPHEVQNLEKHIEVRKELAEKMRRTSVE
Protocol: as §1
For the wild type LRRK the 2×LRRK2/ERM (LRRKtide) mixture was prepared in 50 mM Tris pH 8.5, 0.01% BRIJ-35, 10 mM MgCl2, 1 mM EGTA, 0.02% NaN3. […] After 1 hour Kinase Reaction incubation, 5 μL of Detection Mix was added.

LRRK2 G2019S = LRRK2 G2019S (Homo sapiens (Human), UniProt Q5S007, G2019S); test: LRRK2 G2019S Kinase Assay; settings: 10 μM ATP
Chain of LRRK2 G2019S (Q5S007 970-2527 G2019S): as the sequence (Q5S007 970-2527) above, with G1050S counted along it
Protocol: Procedure: Enzyme was incubated with substrate peptide in reaction buffer in the presence and absence of test compounds or Staurosporine. All additions were done on ice, followed by the addition of ATP mix. Wells were uniformly mixed using an Eppendorff plate shaker and incubated at 30° C. for 20 min, and stopped by the addition of 5 μl of 3% phosphoric acid. Volume was increased to 100 μl by adding 0.8% phosphoric acid which was then transferred to PC filter mats (Millipore), pre-equilibrated with 70% ethanol and water. Plates were washed thrice with 100 μl 0.8% phosphoric acid and dried for an hour at 60° C. 100 μl scintillation fluid was added into each well and reading taken in Perkin Elmer TOPCOUNT beta counter. […] A validation EC50 curve was generated by plotting CPM for each Staurosporine concentration on y-axis against the Log concentration of Staurosporine (nM) on the x-axis followed by a best fit curve through the points.
After 1 hour Kinase Reaction incubation, 5 μL of Detection Mix was added.

Cc1n[nH]c2ncc(-c3cncc(N4CCC(F)(F)C4)n3)cc12 [Compound 56, 5-(6-(3,3-difluoropyrrolidin-1-yl)pyrazin-2-yl)-3-methyl-1H-pyrazolo[3,4-b]pyridine]
IC50 (DYRK1A): > 1000 nM
IC50 (LRRK2): > 500 nM
IC50 (LRRK2 G2019S): > 500 nM

Cc1n[nH]c2ncc(-c3cncc(N4CCN(CCO)CC4)n3)cc12 [Compound 59, 2-(4-(6-(3-methyl-1H-pyrazolo[3,4-b]pyridin-5-yl)pyrazin-2-yl)piperazin-1-yl)ethanol]
IC50 (DYRK1A): > 500 nM
IC50 (LRRK2): < 500 nM
IC50 (LRRK2 G2019S): < 500 nM

Cc1n[nH]c2ncc(-c3cncc(N4CCN(C)CC4)n3)cc12 [Compound 65, 3-methyl-5-(6-(4-methylpiperazin-1-yl)pyrazin-2-yl)-1H-pyrazolo[3,4-b]pyridine]
IC50 (DYRK1A): > 1000 nM
IC50 (LRRK2): < 500 nM
IC50 (LRRK2 G2019S): < 500 nM

Cc1n[nH]c2ncc(-c3cncc(NCCN(C)C)n3)cc12 [Compound 68, N^1,N^1-dimethyl-N2-(6-(3-methyl-1H-pyrazolo[3,4-b]pyridin-5-yl)pyrazin-2-yl)ethane-1,2-diamine]
IC50 (DYRK1A): > 1000 nM
IC50 (LRRK2): < 500 nM
IC50 (LRRK2 G2019S): < 500 nM

Cc1n[nH]c2ncc(-c3cncc(C(=O)N4CCCCC4)n3)cc12 [Compound 77, (6-(3-methyl-1H-pyrazolo[3,4-b]pyridin-5-yl)pyrazin-2-yl)(piperidin-1-yl)metha-none]
IC50 (DYRK1A): > 1000 nM
IC50 (LRRK2): > 500 nM
IC50 (LRRK2 G2019S): > 500 nM

Cc1n[nH]c2ncc(-c3cncc(NC4CCN(CCO)CC4)n3)cc12 [Compound 81, 2-(4-((6-(3-methyl-1H-pyrazolo[3,4-b]pyridin-5-yl)pyrazin-2-yl)amino)piperidin-1-yl)ethanol]
IC50 (DYRK1A): < 500 nM
IC50 (LRRK2): < 500 nM
IC50 (LRRK2 G2019S): < 500 nM

Cc1n[nH]c2ncc(-c3cncc(N4CCNC(=O)C4)n3)cc12 [Compound 83, 4-(6-(3-methyl-1H-pyrazolo[3,4-b]pyridin-5-yl)pyrazin-2-yl)piperazin-2-one]
IC50 (DYRK1A): > 500 nM
IC50 (LRRK2): > 500 nM
IC50 (LRRK2 G2019S): > 500 nM

Cc1n[nH]c2ncc(-c3cncc(NC4CCN(C(C)C)CC4)n3)cc12 [Compound 87, N-(1-isopropylpiperidin-4-yl)-6-(3-methyl-1H-pyrazolo[3,4-b]pyridin-5-yl)pyrazin-2-amine]
IC50 (DYRK1A): > 500 nM
IC50 (LRRK2): > 500 nM
IC50 (LRRK2 G2019S): > 500 nM

Cc1n[nH]c2ncc(-c3cncc(N4CCc5ccccc54)n3)cc12 [Compound 90, 5-(6-(indolin-1-yl)pyrazin-2-yl)-3-methyl-1H-pyrazolo[3,4-b]pyridine]
IC50 (DYRK1A): < 500 nM
IC50 (LRRK2): < 500 nM
IC50 (LRRK2 G2019S): < 500 nM

Cc1n[nH]c2ncc(-c3cncc(Nc4cccc(N5CCCC5=O)c4)n3)cc12 [Compound 94, 1-(3-((6-(3-methyl-1H-pyrazolo[3,4-b]pyridin-5-yl)pyrazin-2-yl)amino)phenyl)pyrrolidin-2-one]
IC50 (DYRK1A): > 500 nM
IC50 (LRRK2): < 500 nM
IC50 (LRRK2 G2019S): < 500 nM

Cc1n[nH]c2ncc(-c3cccc(NC4CCN(C)CC4)c3)cc12 [Compound 98, 1-methyl-N-(3-(3-methyl-1H-pyrazolo[3,4-b]pyridin-5-yl)phenyl)piperidin-4-amine]
IC50 (DYRK1A): > 1000 nM
IC50 (LRRK2): > 1000 nM
IC50 (LRRK2 G2019S): > 1000 nM

Cc1n[nH]c2ncc(-c3cccc(NC4CCN(C)CC4)n3)cc12 [Compound 102, 6-(3-methyl-1H-pyrazolo[3,4-b]pyridin-5-yl)-N-(1-methylpiperidin-4-yl)pyridin-2-amine]
IC50 (DYRK1A): > 500 nM
IC50 (LRRK2): > 500 nM
IC50 (LRRK2 G2019S): > 500 nM

Cc1n[nH]c2ncc(-c3cnn(C)c3)cc12 [Compound 108, 3-methyl-5-(1-methyl-1H-pyrazol-4-yl)-1H-pyrazolo[3,4-b]pyridine]
IC50 (DYRK1A): > 500 nM
IC50 (LRRK2): > 500 nM
IC50 (LRRK2 G2019S): > 500 nM

CN1CCN(c2cncc(-c3cnc4[nH]ccc4c3)n2)CC1 [Compound 125, 5-(6-(4-methylpiperazin-1-yl)pyrazin-2-yl)-1H-pyrrolo[2,3-b]pyridine]
IC50 (DYRK1A): < 500 nM
IC50 (LRRK2): < 500 nM
IC50 (LRRK2 G2019S): < 500 nM

OCCN1CCN(c2cncc(-c3cnc4[nH]ccc4c3)n2)CC1 [Compound 126, 2-(4-(6-(1H-pyrrolo[2,3-b]pyridin-5-yl)pyrazin-2-yl)piperazin-1-yl)ethanol]
IC50 (DYRK1A): < 500 nM
IC50 (LRRK2): < 500 nM
IC50 (LRRK2 G2019S): < 500 nM

CN(C)CCNc1cncc(-c2cnc3[nH]ccc3c2)n1 [Compound 127, N1-(6-(1H-pyrrolo[2,3-b]pyridin-5-yl)pyrazin-2-yl)-N2,N2-dimethylethane-1,2-diamine]
IC50 (DYRK1A): > 500 nM
IC50 (LRRK2): > 500 nM
IC50 (LRRK2 G2019S): > 500 nM

c1cnc(N2CCCC2)c(-c2cnc3[nH]ccc3c2)n1 [Compound 128, 5-(3-(pyrrolidin-1-yl)pyrazin-2-yl)-1H-pyrrolo[2,3-b]pyridine]
IC50 (DYRK1A): > 500 nM
IC50 (LRRK2): > 500 nM
IC50 (LRRK2 G2019S): > 500 nM

O=C1CCCN1c1cncc(-c2cnc3[nH]ccc3c2)n1 [Compound 131, 1-(6-(1H-pyrrolo[2,3-b]pyridin-5-yl)pyrazin-2-yl)pyrrolidin-2-one]
IC50 (DYRK1A): > 500 nM
IC50 (LRRK2): > 500 nM
IC50 (LRRK2 G2019S): > 500 nM

FC1(F)CCN(c2cncc(-c3cnc4[nH]ccc4c3)n2)C1 [Compound 135, 5-(6-(3,3-difluoropyrrolidin-1-yl)pyrazin-2-yl)-1H-pyrrolo[2,3-b]pyridine]
IC50 (DYRK1A): > 500 nM
IC50 (LRRK2): > 500 nM
IC50 (LRRK2 G2019S): > 500 nM

OC1CCN(c2cncc(-c3cnc4[nH]ccc4c3)n2)CC1 [Compound 137, 1-(6-(1H-pyrrolo[2,3-b]pyridin-5-yl)pyrazin-2-yl)piperidin-4-ol]
IC50 (DYRK1A): < 500 nM
IC50 (LRRK2): < 500 nM
IC50 (LRRK2 G2019S): < 500 nM

CN(CC1CCOCC1)c1cncc(-c2cnc3[nH]ccc3c2)n1 [Compound 143, N-methyl-6-(1H-pyrrolo[2,3-b]pyridin-5-yl)-N-((tetrahydro-2H-pyran-4-yl)methyl)pyrazin-2-amine]
IC50 (DYRK1A): < 500 nM
IC50 (LRRK2): < 500 nM
IC50 (LRRK2 G2019S): < 500 nM

CN(CC1CCOCC1)c1cncc(-c2cnc3[nH]cc(Cl)c3c2)n1 [Compound 144, 6-(3-chloro-1H-pyrrolo[2,3-b]pyridin-5-yl)-N-methyl-N-((tetrahydro-2H-pyran-4-yl)methyl)pyrazin-2-amine]
IC50 (DYRK1A): < 500 nM
IC50 (LRRK2): < 500 nM
IC50 (LRRK2 G2019S): < 500 nM

CN(CC1CCOCC1)c1cncc(-c2cnc3[nH]cc(F)c3c2)n1 [Compound 145, 6-(3-fluoro-1H-pyrrolo[2,3-b]pyridin-5-yl)-N-methyl-N-((tetrahydro-2H-pyran-4-yl)methyl)pyrazin-2-amine]
IC50 (DYRK1A): < 500 nM
IC50 (LRRK2): < 500 nM
IC50 (LRRK2 G2019S): < 500 nM

Clc1c[nH]c2ncc(-c3cncc(N4CCOCC4)n3)cc12 [Compound 149, 4-(6-(3-chloro-1H-pyrrolo[2,3-b]pyridin-5-yl)pyrazin-2-yl)morpholine]
IC50 (DYRK1A): < 500 nM
IC50 (LRRK2): < 500 nM
IC50 (LRRK2 G2019S): < 500 nM

Fc1c[nH]c2ncc(-c3cncc(N4CCOCC4)n3)cc12 [Compound 150, 4-(6-(3-fluoro-1H-pyrrolo[2,3-b]pyridin-5-yl)pyrazin-2-yl)morpholine]
IC50 (DYRK1A): < 500 nM
IC50 (LRRK2): < 500 nM
IC50 (LRRK2 G2019S): < 500 nM

CN1CCN(Cc2cccc(-c3cnc4[nH]ccc4c3)c2)CC1 [Compound 152, 5-(3-((4-methylpiperazin-1-yl)methyl)phenyl)-1H-pyrrolo[2,3-b]pyridine]
IC50 (DYRK1A): < 500 nM
IC50 (LRRK2): < 500 nM
IC50 (LRRK2 G2019S): < 500 nM

COc1ccccc1-c1n[nH]c2ncc(-c3ccsc3)cc12 [Compound 183, 3-(2-methoxyphenyl)-5-(thiophen-3-yl)-1H-pyrazolo[3,4-b]pyridine]
IC50 (DYRK1A): < 500 nM
IC50 (LRRK2): < 500 nM
IC50 (LRRK2 G2019S): < 500 nM

COc1ccccc1-c1n[nH]c2ncc(-c3ccoc3)cc12 [Compound 184, 5-(furan-3-yl)-3-(2-methoxyphenyl)-1H-pyrazolo[3,4-b]pyridine]
IC50 (DYRK1A): < 500 nM
IC50 (LRRK2): < 500 nM
IC50 (LRRK2 G2019S): < 500 nM
